These results are taken from US10927096B2, “Ester substituted ion channel blockers and methods for use” (Nocion Therapeutics, Inc., priority 2019, dated 2021).

SMILES strings stand for the structures. Where only a bound is given, the exact number is not on record here.

Series [1] has as its target T1, NaV1.7 (Homo sapiens, UniProt Q15858).
T1 construct: expressed in transfected cells; host or cells: HEK293, tetracycline-inducible
The series can be described thus: Automated patch clamp (Qube 384), internal block of NaV1.7 in HEK293 cells. The class given is cell-based. The following applies: compound in internal solution, read-out: NaV1.7 Intracellular Inhibition. How it is done:
(§1) NaV1.7 was expressed in HEK293 cells upon induction with tetracycline. Cells were cultured in DMEM containing 10% dialyzed Fetal Bovine Serum (VWR, Radnor, Pa.), 1% Glutamax (VWR, Radnor, Pa.), 1% Penicillin-Streptomycin (VWR, Radnor, Pa.), 100 mg/L Hygromycin (Thermo Fisher Scientific, Waltham, Mass. and 5 mg/L Blasticidin (Alfa Aesar, Haverhill, Mass.). Cells were grown and maintained at 37° C. in a humidified environment containing 10% CO2 in air. Cells were detached from the culture flask for passage and harvested using 0.05% Trypsin-EDTA (Thermo Fisher Scientific, Waltham, Mass.). To induce NaV1.7, cells were induced with tetracycline (0.1-1 μg/mL, IBI Scientific, Peosta, Iowa) the day before recording.
(§2) Before experiments, cells were washed with DPBS (VWR, Radnor, Pa.), digested with Detachin (VWR Radnor, Pa.) and then triturated 10 times in CHO Serum-Free Media (VWR Radnor, Pa.) to resuspend the cells and to break apart cell aggregates. Cells were counted and the final concentration was set at 2-5 million cells per mL.
(§3) The intracellular solution contained the following: 140 mM CsF, 1 mM/5 mM EGTA/CsOH, 10 mM HEPES, 10 mM NaCl, adjusted to pH 7.3 with CsOH, and osmolality to 320 with sucrose. The external solution contained the following: 145 mM NaCl, 4 mM KCl, 1 mM MgCl2, 2 mM CaCl2, 10 mM HEPES, 10 mM Glucose, adjusted to pH 7.4 with CsOH and osmolality to 305 with sucrose. All chemicals are from Sigma-Aldrich, St. Louis, Mo. In order to test the degree of internal block by test compounds, the compounds were dissolved in internal solution at the indicated test concentration. […] In order to test the degree of external block by test compounds the compounds were dissolved in external solution at the indicated test concentration.
(§4) Automated Patch Clamps were performed on Qube 384 (Sophion Bioscience, Woburn Mass.) with multihole Qchips at a temperature setting of 22 degrees. The whole cells configuration was formed with default Qube seal and break-in parameter. The membrane potential was held at −100 mV before the voltage protocol began. Two voltage protocols were followed.
(§5) Step 1: Cells were held at −100 mV with a depolarized pulse to −20 mV for 10 ms, the interval was set at 5 s. Currents were corrected by default leak subtraction from every pulse. The duration was set at 5 mins.
(§6) Step 2: Cells were held at −100 mV with a depolarized pulse to −20 mV for 10 ms. The frequency was 5 Hz. Currents were corrected by leak subtraction calculated before step 2. The duration was set at 4 mins.
After Step 2, the Qchip was removed from the recording chamber. The internal solution was changed with solutions containing test compounds. Qchips were held at −100 mV without pulsing after being replaced in the recording chamber. The total solution switching time was 8 minutes. After the internal solution exchange, Cells were recorded and step 2 for repeated for 10 minutes.
Data analysis was performed by Sophion Analyzer. Cells were filtered with minimum 50 MOhm seal resistance and minimum 5 nA starting current. The rundown of the currents was corrected with control cells (Non-Drug). The remaining was calculated by averaging last 3 points in the end of experiments. The base line was calculated as the average of last 3 points of Step 2. IC50 curves were plotted with DR-plots/Hill function (a dose-response plot with a Hill fit).
Representative examples of the invention were tested for intracellular inhibition of NaV 1.7 in the automated patch clamp assay. Activity Range is reported as IC50: “++++” (<1 μM), “+++” (1-3 μM), “++” (3-10 μM) or “+” (10-30 μM).
In general terms: In patch-clamp work, channel activity is measured electrically.

Series [2] addresses T1, NaV1.7. The series can be described thus: Automated patch clamp (Qube 384), external block of NaV1.7 in HEK293 cells. In kind it is cell-based. The settings on record: compound in external solution, read-out: NaV1.7 Extracellular Inhibition. The protocol: as §1, §2, §3, §4, §5, §6
After Step 2, the external solution was changed with solutions containing test compounds. Qchips were held at −100 mV without pulsing. The total solution switching time was 8 minutes. After the external solution exchange, cells were recorded using the same procedure as step 2 for 10 minutes.
Data analysis was performed by Sophion Analyzer. Data were corrected with control cells (Non-Drug). The IC50 data were plotted with DR-plots/Hill function (a dose-response plot with a Hill fit).
Representative examples of the invention were tested for extracellular inhibition of NaV 1.7 in the automated patch clamp assay. Activity Range is reported as IC50: “++++” (<1 μM), “+++” (1-10 μM), “++” (10-30 μM) or “+” (>30 μM).

The nature of series [3]: PAMPA membrane permeability assay. The settings on record: pH 7.4 buffer, GIT lipid, 4 hours incubation. In kind it is physicochemical. The gist of the method: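 Passive diffusion across a GIT-lipid-painted artificial membrane, with compounds at 50 uM in pH 7.4 buffer in the donor well and 4 h incubation. Donor, acceptor and reference solutions were quantified by UV spectra, and permeability coefficients (10^−6 cm/s) were derived from AUCs. Results are binned as + (<0.1), ++ (0.1-2.0), +++ (2.0-10.0), ++++ (>10.0).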
A general note: In PAMPA a lipid-coated filter parts donor from acceptor wells.

T1 sequence (Q15858 whole entry): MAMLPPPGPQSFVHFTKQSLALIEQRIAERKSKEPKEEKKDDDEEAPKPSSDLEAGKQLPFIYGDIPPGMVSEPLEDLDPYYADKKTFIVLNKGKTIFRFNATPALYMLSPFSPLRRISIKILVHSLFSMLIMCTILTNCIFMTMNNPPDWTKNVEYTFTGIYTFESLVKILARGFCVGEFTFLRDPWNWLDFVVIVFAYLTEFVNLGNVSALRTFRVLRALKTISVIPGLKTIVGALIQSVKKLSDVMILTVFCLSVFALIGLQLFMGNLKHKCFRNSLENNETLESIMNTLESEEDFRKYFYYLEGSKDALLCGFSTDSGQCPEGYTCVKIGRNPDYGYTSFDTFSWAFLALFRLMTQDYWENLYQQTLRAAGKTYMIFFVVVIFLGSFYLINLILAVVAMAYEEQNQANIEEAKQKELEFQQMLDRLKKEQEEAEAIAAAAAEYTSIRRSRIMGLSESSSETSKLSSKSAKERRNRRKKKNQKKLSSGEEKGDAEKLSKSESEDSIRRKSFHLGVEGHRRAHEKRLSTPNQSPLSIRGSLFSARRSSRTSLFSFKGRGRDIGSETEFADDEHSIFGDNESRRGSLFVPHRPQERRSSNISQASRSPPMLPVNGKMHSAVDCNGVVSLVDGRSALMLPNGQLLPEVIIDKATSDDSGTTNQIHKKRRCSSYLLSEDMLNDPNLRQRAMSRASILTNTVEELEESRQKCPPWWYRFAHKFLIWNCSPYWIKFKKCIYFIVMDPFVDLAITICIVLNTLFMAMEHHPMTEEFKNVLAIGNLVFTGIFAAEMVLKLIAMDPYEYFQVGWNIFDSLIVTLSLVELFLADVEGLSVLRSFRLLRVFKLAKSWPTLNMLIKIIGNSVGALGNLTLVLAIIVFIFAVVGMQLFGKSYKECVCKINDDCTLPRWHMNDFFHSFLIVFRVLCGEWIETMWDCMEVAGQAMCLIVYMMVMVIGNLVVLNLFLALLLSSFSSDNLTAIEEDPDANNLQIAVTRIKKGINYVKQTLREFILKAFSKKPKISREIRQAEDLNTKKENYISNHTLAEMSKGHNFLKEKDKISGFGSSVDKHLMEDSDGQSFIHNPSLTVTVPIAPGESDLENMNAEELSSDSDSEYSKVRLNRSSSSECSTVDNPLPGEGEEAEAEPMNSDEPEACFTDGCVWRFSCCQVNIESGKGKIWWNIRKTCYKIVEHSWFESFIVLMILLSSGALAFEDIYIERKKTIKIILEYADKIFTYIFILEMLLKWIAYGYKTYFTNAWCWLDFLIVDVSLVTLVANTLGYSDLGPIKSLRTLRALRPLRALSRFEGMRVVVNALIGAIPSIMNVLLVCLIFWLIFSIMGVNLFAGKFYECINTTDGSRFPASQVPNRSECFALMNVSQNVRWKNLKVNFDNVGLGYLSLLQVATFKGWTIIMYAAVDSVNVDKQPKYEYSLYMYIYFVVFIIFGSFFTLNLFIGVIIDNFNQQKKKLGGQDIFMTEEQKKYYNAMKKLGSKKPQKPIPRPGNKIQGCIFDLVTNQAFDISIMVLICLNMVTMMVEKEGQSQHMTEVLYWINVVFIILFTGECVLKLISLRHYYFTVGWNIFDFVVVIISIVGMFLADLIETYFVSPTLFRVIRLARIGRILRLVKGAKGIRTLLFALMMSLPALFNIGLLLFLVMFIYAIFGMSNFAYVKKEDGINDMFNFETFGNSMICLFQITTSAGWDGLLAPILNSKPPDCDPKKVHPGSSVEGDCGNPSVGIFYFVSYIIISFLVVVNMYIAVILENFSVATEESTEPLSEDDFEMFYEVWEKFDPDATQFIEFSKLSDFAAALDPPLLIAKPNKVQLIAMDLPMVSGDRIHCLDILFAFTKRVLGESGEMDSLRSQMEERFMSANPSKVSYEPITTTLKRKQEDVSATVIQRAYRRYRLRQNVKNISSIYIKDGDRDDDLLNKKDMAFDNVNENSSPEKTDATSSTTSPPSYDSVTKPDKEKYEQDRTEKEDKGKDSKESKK

As for `COC(=O)c1cccc(C)c1NC(=O)C[N+]1(Cc2ccccc2)CCCCC1.[Br-]` [Compound 3], the IC50 on NaV1.7 [1] is 1000 to 3000 nM; at NaV1.7 [2] it was more than 30000 nM. Further, the “PAMPA (10^−6 cm/s)” value in series [3] is listed as “+ (<0.1 10^−6 cm/s)”.
On the same counts, the results for `CCOC(=O)c1cccc(C)c1NC(=O)C[N+]1(Cc2ccccc2)CCCCC1.[Br-]` [Compound 4] are less than 1000 nM, 1000 to 10000 nM and “+ (<0.1 10^−6 cm/s)”.
On the same counts, the results for `COC(=O)c1cccc(C)c1NC(=O)C[N+]1(Cc2ccccc2)CCCC1` [Compound 5] are 1000 to 3000 nM, more than 30000 nM and “+++ (2.0-10.010^−6 cm/s)”.
In the same order, the values of `Cc1cccc(C(=O)OC(C)C)c1NC(=O)C[N+]1(Cc2ccccc2)CCCCCC1.[Br-]` [Compound 7] are less than 1000 nM, 1000 to 10000 nM and “+ (<0.1 10^−6 cm/s)”.
`CCOC(=O)c1cccc(C)c1NC(=O)C[N+]1(Cc2ccccc2)CCCC1.[Br-]` [Compound 9]: the IC50 is less than 1000 nM at NaV1.7 [1] and 1000 to 10000 nM on NaV1.7 [2]. For the same compound, the “PAMPA (10^−6 cm/s)” value in series [3] was “+ (<0.1 10^−6 cm/s)”.
On the same counts, the results for `CC[N+]1(CC(=O)Nc2c(C)cccc2C(=O)OC)CCCC(C(=O)OCC(C)C)C1.[I-]` (stereo not drawn) [Compound 23] are less than 1000 nM, more than 30000 nM and “+ (<0.1 10^−6 cm/s)”.
On the same counts, the results for `COC(=O)c1cccc(C)c1NC(=O)C[N+]1(Cc2ccccc2)CCCC(C(N)=O)C1.[Br-]` (stereo not drawn) [Compound 30] are less than 1000 nM, more than 30000 nM and “+ (<0.1 10^−6 cm/s)”.
On the same counts, the results for `COC(=O)c1cccc(C)c1NC(=O)C[N+]1(Cc2ccccc2)CCCC(C(=O)NC(C)C)C1.[Br-]` (stereo not drawn) [Compound 32] are less than 1000 nM, more than 30000 nM and “+ (<0.1 10^−6 cm/s)”.
With `COC(=O)c1cccc(C)c1NC(=O)C[N+]1(Cc2ccccc2)CCCC(C(=O)NCC(C)C)C1.[Br-]` (stereo not drawn) [Compound 36], the IC50 at NaV1.7 [1] was 1000 to 3000 nM; on NaV1.7 [2], 10000 to 30000 nM. Also, the “PAMPA (10^−6 cm/s)” value in series [3] is recorded as “+++ (2.0-10.010^−6 cm/s)”.
In the same order, the values of `CC[N+]1(CC(=O)Nc2c(C)cccc2C(=O)OC)CCCC(C(=O)N2CCCCC2)C1.[I-]` (stereo not drawn) [Compound 45] are less than 1000 nM, more than 30000 nM and “+ (<0.1 10^−6 cm/s)”.
On the same counts, the results for `CC[N+]1(CC(=O)Nc2c(C)cccc2C(=O)OC)CCCC(C(N)=O)C1.[I-]` (stereo not drawn) [Compound 55] are 3000 to 10000 nM, more than 30000 nM and “+ (<0.1 10^−6 cm/s)”.
In the same order, the values of `CCC(C(=O)Nc1c(C)cccc1C(=O)OC)[N+]1(Cc2ccccc2)CCCCC1` (stereo not drawn) [Compound 57] are 1000 to 3000 nM, more than 30000 nM and “+ (<0.1 10^−6 cm/s)”.
As to `CCOC(=O)C[N+]1(CC(=O)Nc2c(C)cccc2C(=O)OC)CCCC(c2ccccc2)C1.O=C([O-])C(F)(F)F` (stereo not drawn) [Compound 63], the IC50 at NaV1.7 [1] is less than 1000 nM; on NaV1.7 [2], 1000 to 10000 nM. The “PAMPA (10^−6 cm/s)” value in series [3] is reported as “+++ (2.0-10.010^−6 cm/s)”.
On the same counts, the results for `COC(=O)c1cccc(C)c1NC(=O)C[n+]1cccc(-c2ccccc2)c1.[Br-]` [Compound 66] are less than 1000 nM, 10000 to 30000 nM and “+ (<0.1 10^−6 cm/s)”.
In the same order, the values of `COC(=O)c1cccc(C)c1NC(=O)C[n+]1cccn1C1CCCCC1.[Br-]` [Compound 69] are less than 1000 nM, more than 30000 nM and “++ (0.1-2.0 10^−6 cm/s)”.
On the same counts, the results for `Cc1cccc(C(=O)OC(C)(C)C)c1NC(=O)C[n+]1cccc(-c2ccccc2)c1.[Br-]` [Compound 71] are 1000 to 3000 nM, 1000 to 10000 nM and “+ (<0.1 10^−6 cm/s)”.
For `Cc1cccc(C(=O)OC(C)(C)C)c1NC(=O)C[n+]1cccn1C1CCCCC1.[Br-]` [Compound 72], the values for the IC50 at NaV1.7 [1] and on NaV1.7 [2] were 1000 to 3000 nM and 1000 to 10000 nM, respectively. Also, in series [3], the “PAMPA (10^−6 cm/s)” value is on record as “+ (<0.1 10^−6 cm/s)”.
